Target: VFT^pp (periplasmic VFT domain of RmcA^pp) (Pseudomonas putida, UniProt Q88QU8)
Test: biochemical

VFT^pp (periplasmic VFT domain of RmcA^pp), sequence (Q88QU8 21-265): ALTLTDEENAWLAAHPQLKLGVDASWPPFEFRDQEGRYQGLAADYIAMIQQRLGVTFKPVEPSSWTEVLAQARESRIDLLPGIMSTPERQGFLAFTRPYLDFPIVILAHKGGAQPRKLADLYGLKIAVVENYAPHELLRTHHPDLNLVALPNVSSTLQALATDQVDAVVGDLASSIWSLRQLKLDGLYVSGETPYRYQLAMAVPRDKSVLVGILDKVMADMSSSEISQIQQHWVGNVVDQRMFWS

Kd: 7.1 ± 2.2 µM
Structure (SMILES): N=C(N)NCCC[C@H](N)C(=O)O [L-arginine]
